# Source: US9890106B2, “Anti-cancer lead molecule” (KING ABDULLAH UNIVERSITY OF SCIENCE AND TECHNOLOGY, priority 2012, dated 2018)
# Several values for one entry are separate records, joined by “and”; a condition that tells them apart may be missing. Equal entries are not always repeated. Where two headings read alike, the source gives them in different places.
# Key:
# [1] = tested on: MCF-7 (human breast cancer cell line); test: MTT cytotoxicity assay, MCF-7
# Description: (§1) The cytotoxicity of plumbagin and derivative ‘A’ was estimated by MTT assay. Cells were plated in a 384-well culture plates (2000 cells per well in 20 μl of media) for 24 h and cells were treated with various concentrations (0, 1.0, 5.0, 10.0, 20.0, 40.0, 80.0 and 100.0 μM) for 12 hr, 24 hr, 36 hr and 48 hr. Following desired incubation time, 5 μl of sterile 5 mg/ml MTT (3-(4,5-Dimethylthiazol-z-yl)-2,5diphenyltetrazolium bromide) (Sigma) dissolved in PBS was added to each well and the cells were incubated for another 4 hr followed by the addition of 30 μl of solubilisation solution (10% SDS, 10 mM HCl) and incubation for 16 hr at 37° C. The OD of each well at 595 nm was determined using a microtiter plate reader (BMG Pherastar).
# [2] = tested on: BJ cell line (human normal fibroblast cells); test: MTT cytotoxicity assay, BJ normal fibroblasts
# Description: as §1
# [3] = tested on: HepG2 (Hepatocellular carcinoma) cell line; test: MTT cytotoxicity assay, HepG2 (in vitro hepatotoxicity model); settings: for IC50: read-out: IC50 against HepG2
# Description: as §1
# [4] = tested on: MCF-7 cells; test: APOPercentage dye-uptake apoptosis assay, MCF-7; format: cell-based, human
# Description: (§2) To further test if the cancer cells in present investigation are dying via apoptosis, a dye inclusion assay called APOPercentage was performed. APOPercentage™ is a dye-uptake assay that detects apoptotic cells during phospholipid phosphatidylserine (PS) trans-membrane movement. It has been established previously that APOPercentage™ can be used to detect early stages of apoptosis as efficiently as other technologies like Annexin V.
# (§3) The cells were plated in 96 well plates at a density of 5×10^3 cells per well in triplicate in 90 μl of media. The cells were treated with 10 μl of desired concentration of plumbagin and derivative ‘A’ in DMEM media. The cells were incubated at 37° C. for 12 hr and 24 hr in different plates. 5 mM H2O2 was treated for 30 minutes to 1 hour as a positive control. The cells were stained with APOPercentage dye as per instructions from the vendor (Biocolor, UK). The cells were photographed with Nikon TS100 microscope. The OD was measured at 550 nm absorbance using BMG Pherastar and percentage of cells taking up APOPercentage dye was calculated.
# [5] = tested on: BJ cells; test: APOPercentage dye-uptake apoptosis assay, BJ; format: cell-based, human
# Description: as §2, §3
# [6] = tested on: MCF-7 tumor; test: MCF-7 xenograft tumor inhibition in nude mice; format: in vivo; set-up: Tumor weight at autopsy, individual mouse (1-5) / Tumor weight at autopsy, AV: unit not given here; settings: for Tumor volume measured externally, AV / Tumor volume measured externally, individual mouse (1-5) / Tumor weight at autopsy, AV / Tumor weight at autopsy, individual mouse (1-5) / Tumor inhibition rate (C − T)/C × 100%, tumor volume / Tumor inhibition rate (C − T)/C × 100%, tumor weight: Compound A 5 mg/kg, Compound P 2 mg/kg, i.p, qd*21 days; for Tumor inhibition rate (C − T)/C × 100%, tumor volume: based on tumor volume by calipers; for Tumor inhibition rate (C − T)/C × 100%, tumor weight: based on tumor weight at autopsy
# Description: Amplified and implanted (S.C.) the cancer cells (MCF-7) into 4 nude mice with 1.0×10^7 cells in 0.1 ml PBS plus matrigel (1:1) /mouse, when tumors reach 300-500 mm^3, the tumor masses were harvested, cut into small pieces of approximately 1-2 mm^3, and then surgically implanted into the 42 new nude mice for model set up (eventually 30 tumor-bearing mice are selected).
# (§4) When the tumor size reached a volume of 150 (150-220) mm^3, the tumor-bearing nude mice derived from MCF-7 cells were randomly assigned into 3 groups (10 mice/group): Group 1 was served as vehicle group (25% PEG400, 200 μl/20 g mouse, i.p, qd for 21 days and 25% PEG400, 400 μl/20g mouse, i.p, qd for 13 days), group 2 was administrated with derivative ‘A’ (5 mg/kg for 21 days and 10 mg/kg for 13 days, i.p, qd), group 3 was administrated with plumbagin (2 mg/kg for 21 days, i.p, qd). The administration period lasted for 3 weeks and 5 weeks. The detailed sacrificing schedule is described in section 5.
# (§5) The tumor volume was measured every other day with calipers, and the body weight was measured immediately before measuring the tumor volume throughout the whole study. If the body weight loss is approaching 20%, stop dosing or decreased dosage will be carried out.
# Tumor sizes were measured every other day in two dimensions using a caliper, and the volume were expressed in mm^3 using the formula: V=½×a×b^2 where a and b are the long and short diameters of the tumor, respectively.
# The tumor mass were weighed and photographed at the end of the experiment after harvested.
# Inhibition rate (%)=(average tumor volume of control group-average cancer volume of test group)/average tumor volume of control group ×100%
# [7] = From the text: At the end of the experiment (the 22nd day after initiating drug treatment), the blood from some tumor-bearing mice per group (4 mice from the group 1, 5 mice from the group 2, 4 mice from the group 3) were collected by cardiac puncture, and the mice were sacrificed by cervical dislocation while under deep anesthesia. The other tumor-bearing mice from each group (5 mice from the group 1, 5 mice from the group 2) were sacrificed after another 13 days treatment (the 35th day after initiating drug treatment), the blood was collected while sacrificing the mice. The tumor samples were harvested, weighed, cut into small pieces and snap frozen in liquid nitrogen for RNA extraction. The liver were harvested and fixed in 10% NBF, and embedded in paraffin for histology analysis.
# Blood were collected from all animals by terminal bleed for subsequent serum preparation, and serum was prepared at the end of the study for each animal. Serum samples were frozen in microcentrifuge tube at −80° C. To test the liver toxicity of the two compounds, biochemical dictators (ALT, AST) were analyzed in all the serum samples no more than 3 days after collection. The excess serum samples would be sent to client.
# The serum was collected as explained above in methods and was used to assess the activity of ALT (alanine aminotransferase) and AST (aspartate aminotransferase).
# [8] = General toxicity in nude mice (mortality, tolerance, body weight); format: in vivo
# Description: as §4
# If abnormal appearance and behavior or signs of morbidity and/or mortality was seen through the cage side observation, the veterinarian would be notified and proper physical examination and/or necropsy would be performed. The food consumption in each group would be recorded. Frequency: daily just after the cell inoculation and twice a day thereafter starting on first dosing.
# as §5
# The use of different treatment concentrations (dosages) of derivative ‘A’ and plumbagin was due to the high toxicity of plumbagin at 5 mg/kg dose (8 mice died due to toxicity in first few days).
# [9] = Liver tissue H&E staining; format: in vivo, nude mice; settings: FIG. 12
# Description: To test the liver toxicity of the two compounds, livers were harvested from all animals while sacrificing the animals. One piece of the liver was fixed in 10% NBF, and embeded in paraffin for pathology analysis, 1 paraffin block was prepared from each liver sample, 2 slides were used for H&E staining.
# The following indications were examined on the photographs for liver tissue H&E staining (FIG. 12): (1) If the liver cells produce fatty degeneration, necrosis, hepatic lobule inflammation or not; (2) If the hepaticus sinus produce dilation or hyperaemia or not; (3) If the hepaticus portal area produce the inflammation or fibrous tissue hyperplasia or not. According to pathology degree from low to high: no lesion “−”, minor lesion “±”, low lesion “+”, middle lesion “++”, high lesion “+++”, highest lesion “++++”. […] The vehicle control is rather showing more toxicity to liver as compared to compounds under testing.
# [10] = tested on: MCF-7 cells; test: Microarray expression and pathway analysis in MCF-7 cells; format: cell-based, human; settings: for 'Atherosclerosis signaling' pathway: MCF-7 induced with 5 and 10 μM, IPA pathway mapping
# Description: Microarray analysis was performed in an effort to identify the possible mechanism of action of derivative ‘A’. The MCF-7 cells induced with 5 and 10 μM of derivative ‘A’ and plumbagin were subjected to microarray experiments and the fold-change in expression was calculated as compared to untreated samples. The lists of differentially expressed genes were mapped to pathways using Ingenuity Pathway Analysis (IPA) tool and several key pathways affected by treatment of derivative ‘A’ and plumbagin were identified. ‘Atherosclerosis signaling’ was one of the key pathways that were affected by derivative ‘A’ and not the plumbagin.
# [11] = MTT time-course screening (12, 24, 36, 48 hr)
# [12] = after 24 hr (20 μM per preceding sentence)
smiles,measurement,setting,value
"CC(=O)Oc1cccc2c1C(=O)C=C(C)C2=O [derivative ‘A’, acetyl plumbagin]",cytotoxicity in MCF-7,"[1]; 10 μM, 12 hr of treatment",comparative to plumbagin
same,inhibits metabolic activity of cancer cells,"[1]; 10 μM, after 12 hr of treatment (FIG. 2)",90%
same,activity against MCF-7 cells,[1]; [11],selective apoptotic activity
same,toxicity against BJ cell line,"[2]; 10 μM, 12 hr",almost nil
same,"toxicity against BJ cell line, times less than plumbagin","[2]; 10 μM, 24 hr, compared to plumbagin at the same concentration",~20 times
same,normal cells BJ inhibited,"[2]; 20 μM, after 36 hr of treatment (FIG. 2)",20%
same,effect on normal fibroblasts,[2]; [11],relatively unaffected
same,"toxicity in BJ cell line, folds less than Plumbagin",[2]; after 36 hr of induction,~4.5 folds
same,hepatotoxicity (data based on HepG2 cell line),[3]; [11],negligible
same,IC50,"[3]; HepG2, 24 hr of treatment",41.2 µM
same,apoptosis induced in cancer cells,"[4]; 10 μM, 24 hr",about 50%
same,cancer cells undergoing apoptosis,[4]; [12],100%
same,safety for normal cells,"[5]; 10 μM, treatment for 24 hr",safe
same,normal cells undergoing apoptosis,[5]; [12],20%
same,effect on normal cells (growth inhibition and apoptosis),"[5]; up to 20 μM, treatment for 12 hr",relatively unaffected
same,"Tumor volume measured externally, AV",[6],420.9 mm^3
same,"Tumor volume measured externally, individual mouse (1-5)",[6],493.1 mm^3 and 595.4 mm^3 and 151.4 mm^3 and 486.0 mm^3 and 378.5 mm^3
same,"Tumor weight at autopsy, AV",[6],0.3145
same,"Tumor weight at autopsy, individual mouse (1-5)",[6],0.3930 and 0.3862 and 0.3802 and 0.3290 and 0.0843
same,"Tumor inhibition rate (C − T)/C × 100%, tumor volume",[6],37.69%
same,"Tumor inhibition rate (C − T)/C × 100%, tumor weight",[6],44.96%
same,tumor size (FIGS. 6A-6B),[6]; group of treated mice versus other groups,smaller
same,ALT and AST values,[7]; in vivo summary,low
same,mean ALT value (FIG. 10),[7]; outliers removed,lower than plumbagin and even lower than vehicle treated mice
same,animal deaths with treatment,"[8]; 5 mg/kg 21 days, 10 mg/kg 13 days, i.p, qd",No animal died
same,body weight loss,[8]; in the course of the treatment,minimum
same,liver toxicity by H&E staining of liver tissue,[9],less toxic to liver as compared to plumbagin
same,gene families down-regulated as compared to untreated samples,"[10]; MCF-7, 10 μM, interleukins, MMPs, CXCL family members",> 2 fold
same,'Atherosclerosis signaling' pathway,[10],affected
"CC1=CC(=O)c2c(O)cccc2C1=O [plumbagin, 5-hydroxy-2-methyl-1,4-naphthoquinone, reference compound]",inhibition at 5 µM,"[1]; Homo sapiens, MCF7, 12 h, read-out: inhibits metabolic activity of cancer cells",90%
same,inhibition at 10 µM,"[2]; Homo sapiens, BJ, 12 h, read-out: inhibits metabolic activity of normal cells BJ",~70%
same,IC50,"[3]; Homo sapiens, HepG2, 24 h",10.2 µM
same,apoptosis in cancer cells,"[4]; 5 μM, within 24 hr of treatment",induces apoptosis
same,"Tumor volume measured externally, AV",[6],560.2 mm^3
same,"Tumor weight at autopsy, AV",[6],0.6020
same,"Tumor volume measured externally, individual mouse (1-5)",[6]; listed as Compound P,1441.7 mm^3 and 260.9 mm^3 and 234.5 mm^3 and 303.8 mm^3
same,"Tumor weight at autopsy, individual mouse (1-5)",[6]; listed as Compound P,1.3530 and 0.4301 and 0.3675 and 0.2574
same,"Tumor inhibition rate (C − T)/C × 100%, tumor volume",[6],17.07%
same,"Tumor inhibition rate (C − T)/C × 100%, tumor weight",[6],−5.35%
same,tolerance by mice (body weight loss),"[8]; 2 mg/kg dose, separate regimen with 1, 2 and 3 mg/kg",well tolerated
same,'Atherosclerosis signaling' pathway,[10],not
